According to patent US20030228402A1, “Compositions and methods for preservation of food” (priority 2002, published 2003):
Like-named read-outs stand apart in the source and are kept apart here.

How the values were obtained:
[1] = Solution and suspension levels of terpenes in water
Description: The terpene and water were blended in a household blender for 30 seconds.
Examples of these levels are as follows.

[2] = tested on: E. coli strains AW574 or AW405; assay: Lysis of E. coli by terpenes (galactosidase activity, ONPG); assay type: cell-based
Description: Lysis of the cell membrane was monitored by the determination of galactosidase activity. B-galactosidase is a well-characterized cytosolic enzyme in bacteria. This enzyme is inducible in the presence of isopropyl-1-thiogalactosidase (IPTG) and assayed calorimetrically with substrate o-nitro-phenyl-B-D-galactoside (ONPG). ONPG is cleaved to release o-nitrophenol which has a peak absorbance at 420 nm.
Since intact E. coli is impermeable to both ONPG and the enzyme, the cells have to be lysed prior to enzymatic assay. Therefore, the ability of terpenes to lyse E. coli can be measured with this enzymatic assay and compared to known lysing agents.
The procedure used was as follows: E. coli strains AW574 or AW405 were cultured overnight in 10 ml tryptone broth with […] at 35° C. Cells were allowed to grow after an absorbance equal to 0.9 was reached.
Cells were harvested, washed with phosphate buffer and resuspended to an absorbance equal to 0.5.
0.1 ml of the bacteria culture was added to 0.9 ml of buffer, warmed to 30° C., and then 80 μl of terpenes (85% terpenes and 15% polysorbate-80), 80 μl water (background), or 40 μl chloroform plus 40 μl 1% SDS in water (positive control) were added.
After the addition of the lysing agents the tubes were mixed for 10 seconds, and 0.2 ml of ONPG (4 mg/ml water) was added, then incubated for 5 minutes. The 5 enzyme activity was stopped with 0.5 ml of 1 M sodium carbonate. After being centrifuged for 3 minutes at 1,500×g, supernatant was transferred to cuvettes and read at 420 nm.
The relative degree of lysis caused by terpenes was calculated as follows: 100× (O.D. terpenes—O.D. water)/(O.D. chloroform—O.D. water).

E. coli strain AW574 = assay: E. coli growth (O.D.) with single or combined terpenes; assay type: cell-based; settings: single terpene 2 μMol; 24 hours
Method: E. coli strain AW574 was grown in tryptone broth to an exponential growth phase (O.D. between 0.4 and 1.0 at 590 nm). One tenth of this growth was inoculated to 10 ml of tryptone broth followed by the addition of individual terpenes or as indicated on Table 8; then incubated for 24 hours at 35-37° C., and the O.D. determined in each tube. The concentration of terpenes was 1 or 2 μMol. Each treatment was repeated in triplicate. The results are expressed as percentage bacterial growth as compared to the control treatment.
E. coli strain AW574 was grown in tryptone broth to an exponential growth phase (O.D. between 0.4 and 1.0 at 590 nm).
One tenth of this growth was inoculated to 10 ml of tryptone broth followed by the addition of individual terpenes or as indicated on Table 18; then incubated for 24 hours at 35-37° C. and the O.D. determined in each tube.
The concentration of terpenes was 1 or 2 μMol. Each treatment was repeated in triplicate.
The results are expressed as percentage bacterial growth as compared to the control treatment.

[3] = Break down of terpenes in the presence of oxygen / potency of solution; assay type: physicochemical; settings: 500 ppm solution
Description: Terpenes will break down in the presence of oxygen. Citral, for example, is an aldehyde and will decay (oxygenate) over a period of days.

erythrocytes = assay type: cell-based; settings: 20 min
Method: These mixtures were incubated for 20 minutes.

E. coli = settings: cited from earlier work
Mycoplasma pneumoniae = assay: Killing of Mycoplasma pneumoniae, color change of SP4 medium; assay type: cell-based; settings: for killing effect (color change of first tube): three days after the 10-fold dilution
Method: This mixture was then used to make concentrations of 2500 ppm in sterile phosphate buffer saline (PBS) by blending the mixture in PBS for 40 seconds. […] PBS containing 25 ppm Tween® 80 or PBS alone was used to treat cells suspension as controls. […] After 40 hours of treatment, 10-fold serial dilution was performed to 10 (−10) by first taking 0.1 mL of the treated culture suspension was added into 0.9 mL of fresh SP4 (Whitcomb (1983); SP4 media is commercially available (Remel, Lenexa, Kans., USA)). All the tubes were then incubated at 37° C., and a color change of the medium was used for the indication of the cells that either were killed or survived from the treatment. Color change was from red to yellow because Mycoplasma pneumoniae produces acid during its growth. All the treatments were performed in duplicate.

[4] = 62.5, 125 and 250 ppm, 40 hours treatment

C=C(C)C1CC=C(C)C(=O)C1 (stereo not shown) [Carvone]
Level (maximum level of terpene solubilized, solution level) ([1]; true solution in water without surfactant, high shear mixing): 500 ppm | Relative lysis % ([2]; 404 μM): 3.2% | Relative lysis % ([2]; 4,040 μM): 22% | Relative lysis % ([2]; 40,400 μM): 54% | % growth (bacterial growth as compared to the control treatment) (E. coli strain AW574): 63.00%

CC(C)=CCCC(C)=CC=O [Citral, 3,7-dimethyl-2,6-octadien-1-al]
time in which the solution will lose half its potency [3]: 2-3 weeks | concentration that will lyse human erythrocytes (erythrocytes): approximately 1000 ppm | citral in growth media with bactericidal effect (E. coli): 0.08%

CC(C)=CCC/C(C)=C/CO [Geraniol]
Level (maximum level of terpene solubilized, solution level) [1]: 500 ppm | Relative lysis % ([2]; 3.63 μM): 2.4% | Relative lysis % ([2]; 36.3 μM): 4% | Relative lysis % ([2]; 363 μM): 34% | Relative lysis % ([2]; 3,630 μM): 98% | Relative lysis % ([2]; 36,300 μM): 96% | % growth (bacterial growth as compared to the control treatment) (E. coli strain AW574): 54.00%

CC(=O)/C=C/C1=C(C)CCCC1(C)C [b-ionone]
killing effect (color change of first tube) (Mycoplasma pneumoniae; [4]): killing effect | tubes of the 10-fold dilution series that changed color (Mycoplasma pneumoniae; 62.5 ppm, 6 days after the 10-fold dilution): only the first tube | killing of all cells (Mycoplasma pneumoniae; 125 and 250 ppm, 40 hours treatment, 6 days after the 10-fold dilution): may have completely killed all cells | Level (maximum level of terpene solubilized, solution level) [1]: 500 ppm | Relative lysis % ([2]; 0.0308 μM): 1.3% | Relative lysis % ([2]; 0.308 μM): 4.78% | Relative lysis % ([2]; 3.08 μM): 23% | Relative lysis % ([2]; 30.8 μM): 44% | Relative lysis % ([2]; 308 μM): 52% | % growth (bacterial growth as compared to the control treatment) (E. coli strain AW574): 84.00%

L-carvone
killing effect (color change of first tube) (Mycoplasma pneumoniae; [4]): no killing effects | tubes of the 10-fold dilution series that changed color (Mycoplasma pneumoniae; 62.5, 125 and 250 ppm, 6 days after the 10-fold dilution): second and third tube

Terpeniol
Level (maximum level of terpene solubilized, solution level) [1]: 500 ppm
